Measurements taken from ChEMBL document CHEMBL4418264, “2,4,5-trisubstituted thiazole compounds,preparation methods,pharmaceutical compositions and medical uses thereof” (2014).

Experiments:
[1] = biological target: T1, Cholesteryl ester transfer protein (Homo sapiens) (UniProt P11597); experiment: Inhibition of CETP (unknown origin) at 500 uM incubated for 0.5 hrs by double illuminometer/fluorescence counter method relative to control
T1 sequence (whole entry): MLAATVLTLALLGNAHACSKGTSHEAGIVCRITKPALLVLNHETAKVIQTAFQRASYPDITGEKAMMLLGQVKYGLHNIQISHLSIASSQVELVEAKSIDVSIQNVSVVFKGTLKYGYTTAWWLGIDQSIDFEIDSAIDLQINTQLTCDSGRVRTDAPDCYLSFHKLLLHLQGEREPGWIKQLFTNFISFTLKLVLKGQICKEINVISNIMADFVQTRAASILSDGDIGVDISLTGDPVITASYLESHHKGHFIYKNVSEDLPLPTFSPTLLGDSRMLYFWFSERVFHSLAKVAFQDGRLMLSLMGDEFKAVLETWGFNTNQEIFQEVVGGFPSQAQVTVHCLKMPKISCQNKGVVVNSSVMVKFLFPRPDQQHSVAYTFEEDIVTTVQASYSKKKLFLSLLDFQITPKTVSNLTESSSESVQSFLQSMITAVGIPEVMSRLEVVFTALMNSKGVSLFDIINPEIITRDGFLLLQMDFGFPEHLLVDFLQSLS

[2] = biological target: Phospholipid transfer protein (Homo sapiens) (UniProt P55058); experiment: Inhibition of PLTP in plasma (unknown origin) assessed as reduction in phospholipid transfer from phospholipid liposome to HDL at 150 uM measured after 1 hr relative to control; assay type: cell-free
Phospholipid transfer protein (Homo sapiens), sequence (P55058 whole entry): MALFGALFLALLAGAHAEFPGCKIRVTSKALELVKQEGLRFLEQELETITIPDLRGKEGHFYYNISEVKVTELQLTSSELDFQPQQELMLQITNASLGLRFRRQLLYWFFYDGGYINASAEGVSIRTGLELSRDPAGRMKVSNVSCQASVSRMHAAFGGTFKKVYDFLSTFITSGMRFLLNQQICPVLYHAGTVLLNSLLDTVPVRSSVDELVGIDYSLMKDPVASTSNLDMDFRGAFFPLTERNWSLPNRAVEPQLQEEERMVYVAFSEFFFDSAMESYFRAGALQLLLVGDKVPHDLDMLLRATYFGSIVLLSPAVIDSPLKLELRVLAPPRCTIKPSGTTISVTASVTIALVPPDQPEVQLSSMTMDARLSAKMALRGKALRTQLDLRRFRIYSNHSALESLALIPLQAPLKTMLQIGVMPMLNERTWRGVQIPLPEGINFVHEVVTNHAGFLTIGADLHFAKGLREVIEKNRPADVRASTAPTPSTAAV

[3] = biological target: Phospholipid transfer protein (Homo sapiens) (UniProt P55058); experiment: Inhibition of PLTP in plasma (unknown origin) assessed as reduction in phospholipid transfer from phospholipid liposome to HDL at 250 uM measured after 1 hr relative to control; assay type: cell-free
[4] = biological target: Phospholipid transfer protein (Homo sapiens) (UniProt P55058); experiment: Inhibition of PLTP in plasma (unknown origin) assessed as reduction in phospholipid transfer from phospholipid liposome to HDL at 500 uM measured after 1 hr relative to control; assay type: cell-free

Row | SMILES | inhibition [1] [%] | inhibition [2] [%] | inhibition [3] [%] | inhibition [4] [%]
1 | O=C(Nc1nc(-c2ccc(O)cc2)c(Cc2ccccc2)s1)c1ccc(Cl)cc1 | 80.4 | 0 | – | –
2 | O=C(Nc1nc(-c2ccc(O)cc2)c(CC2CCCCC2)s1)c1cc(O)c(O)c(O)c1 | 20.9 | – | 100 | –
3 | O=C(Nc1nc(-c2ccc(O)cc2)c(Cc2ccccc2)s1)c1ccc(O)c(O)c1 | 19.4 | – | 79.8 | –
4 | O=C(Nc1nc(-c2ccc(O)cc2)c(CCc2ccccc2)s1)c1ccc(O)c(O)c1 | 0 | – | 97 | –
5 | O=C(Nc1nc(-c2ccccc2)c(Cc2ccc([N+](=O)[O-])cc2)s1)c1ccc(O)c(O)c1 | 0 | – | 100 | –
6 | O=C(Nc1nc(-c2ccc(O)cc2)c(CC2CCCCC2)s1)c1ccc(O)c(O)c1 | 6 | 81.6 | – | –
7 | CCCCc1sc(N)nc1-c1ccc(OC)cc1 | 65.4 | – | 15.3 | –
8 | COc1ccc(-c2nc(N3CCNCC3)sc2Cc2ccccc2)cc1 | 74.5 | – | – | 100
9 | COc1ccc(-c2nc(N)sc2Cc2ccc(F)cc2)cc1 | 52.8 | – | 11.5 | –
10 | O=C(Nc1nc(-c2ccc(O)cc2)c(Cc2ccccc2)s1)c1ccc(O)cc1O | 88 | 11.5 | – | –
11 | Cc1sc(NC(=O)c2cc(O)c(O)c(O)c2)nc1-c1ccc(O)cc1 | 85.9 | – | 10.7 | –
12 | COc1ccc(-c2nc(N)sc2CC2CCCCC2)cc1 | 79.8 | 0 | – | –
13 | COc1ccc(-c2nc(N)sc2CCc2ccccc2)cc1 | 75.8 | – | 24 | –
14 | O=C(Nc1nc(-c2ccc(O)cc2)c(Cc2ccc([N+](=O)[O-])cc2)s1)c1ccc(O)c(O)c1 | 30.4 | – | 67.6 | –
15 | COc1ccc(-c2nc(N3CCOCC3)sc2Cc2ccccc2)cc1 | 91.6 | – | – | 61
16 | O=C(CCc1ccc(O)c(O)c1)Nc1nc(-c2ccc(O)cc2)c(Cc2ccccc2)s1 | 25.3 | 75.7 | – | –
17 | COc1ccc(C(=O)Nc2nc(-c3ccc(O)cc3)c(Cc3ccccc3)s2)cc1 | 71.6 | 0 | – | –
18 | O=C(Nc1nc(-c2ccc(F)cc2)c(Cc2ccc([N+](=O)[O-])cc2)s1)c1ccc(O)c(O)c1 | 0 | – | 100 | –
19 | O=C(Nc1nc(-c2ccc(O)cc2)c(Cc2ccccc2)s1)c1cc(O)c(O)c(O)c1 | 44.1 | 89.4 | – | –
20 | Cc1sc(NC(=O)c2ccc(O)c(O)c2)nc1-c1ccc(O)cc1 | 58.7 | – | 71.9 | –
21 | CCCCc1sc(NC(=O)c2ccc(O)c(O)c2)nc1-c1ccc(O)cc1 | 0 | – | 93.4 | –
22 | O=C(Nc1nc(-c2ccc(O)cc2)c(Cc2ccc(F)cc2)s1)c1ccc(O)c(O)c1 | 9.2 | – | 73.2 | –
23 | CCCCc1sc(NC(=O)c2cc(O)c(O)c(O)c2)nc1-c1ccc(O)cc1 | 27.3 | – | 100 | –
